Test results published in publication PMC11087982, “In vitro and in vivo activities of a trithiolato-diRuthenium complex conjugated with sulfadoxine against the apicomplexan parasite Toxoplasma gondii” (International Journal for Parasitology: Drugs and Drug …, 2024).
Entries after “also recorded” stand apart in the source; their conditions may differ. Like-named read-outs stand apart in the source and are kept apart here.

What was measured:
[1] = tested on: T. gondii Me49 tachyzoites; assay: Long-term treatment of infected HFF to test static or cidal effect; format: cell-based, Toxoplasma gondii; settings: 0.5 μM
Protocol: On day 0, the HFF monolayers were infected with 5 × 10^5 T. gondii Me49 tachyzoites. At 4 h post infection (p.i.) the medium was removed, flasks were washed twice with sterile PBS and fresh medium containing either RU-SDX at 0.25 μM or 0.5 μM, or DMSO (0.05%) as a negative control, were added. Treatments were applied during 3 and 6 days and cultures were maintained in normal DMEM complete media and examined light microscopically daily. After drug removal, flasks were also monitored microscopically daily for one week.

Non-infected HFF = assay: TMRE uptake assay (mitochondrial membrane potential), non-infected HFF; format: cell-based, human; settings: 0.5 μM, 3.5 h
Protocol: (§1) 5 × 10^5 HFF were seeded into T25 culture flasks in DMEM complete medium and maintained in culture for 72 h to reach ⁓80% confluency. HFF monolayers were left either non-infected or were infected with 2 × 10^5 T. gondii Me49 tachyzoites. After another 48 h, the medium was removed from infected and non-infected T25 flasks and was replaced either by medium containing 0.5 μM RU-SDX, or in the case of non-treated controls, medium containing 0.05% DMSO. As positive controls, the two mitochondrial uncouplers FCCP and CCCP were applied at a concentration of 80 and 50 μM, respectively. PYR was applied at 0.5 μM as a control drug not affecting the MMP, and RU-adenine, used as a conjugate shown earlier to impact on the mitochondrial ultrastructure in T. gondii ([Anghel et al., 2021]; [Desiatkina et al., 2022b]), was also tested at 0.5 μM ([Anghel et al., 2021]; [Desiatkina et al., 2022b]). […] Fluorescence was measured using a Hidex Sense microplate reader instrument ([…]) with the excitation wavelength 544/20 nm and emitted light collected at 590/20 nm. Value from wells belonging to the same experimental condition were summed and the mean TMRE uptake in each condition was calculated from three biological replicates.

T. gondii-infected HFF = assay: TMRE uptake assay (mitochondrial membrane potential), T. gondii-infected HFF; format: cell-based, Toxoplasma gondii Me49 in human HFF; settings: 0.5 μM, 3.5 h
Protocol: as §1

T. gondii ShSp1 oocysts = assay: In vivo efficacy in CD1 mice orally infected with T. gondii ShSp1 oocysts (qPCR parasite load)
From the text: Female CD1 mice, 6 weeks of age, were purchased from Charles River (Sulzberg, Germany). They were housed in temperature-controlled animal facilities and were randomly distributed into 4 groups (8 mice/group, with 4 mice per cage), and food and water ad libitum. At the age of 8 weeks, mice were experimentally infected by peroral application of 120 TgShSp1 (type II) oocysts ([Imhof et al., 2021]). Placebo and RU-SDX treatments were started at 3 days p. i., with mice being treated orally by gavage. Group 1 (placebo control) received 100 μl corn oil supplemented with 10% DMSO, while group 2 (treatment group) was administered 5 mg/kg RU-SDX solubilized in 100 μl corn oil/10 % DMSO. These treatments were repeated on days 5, 7, 9 and 11 p. i. During the entire experiment mice were monitored for potential health issues at least twice per day. All mice were sacrificed at 30 days p. i. Brain, eyes, heart, and liver were collected and stored at −20 °C for subsequent DNA extraction and quantification of T. gondii load by quantitative PCR (qPCR).
Genomic DNA was extracted from the collected samples using the NucleoSpin DNA RapidLyze Kit (Macherey-Nagel, Oensingen, Switzerland) and DNA concentrations were quantified by the QuantiFluor double-stranded DNA (dsDNA) system (Promega, Madison, WI, USA) as previously described ([Imhof et al., 2021]). DNA concentrations were adjusted to 5 ng/μl, and qPCR reactions were performed in a final volume of 10 μl containing 1x SensiFast master mix (Bioline, Meridian Bioscience), 0.5 μM of reverse and forward primers, 0.1 μM of 529rpeQ-P probe, 0.3 mM dUTP, and one unit of heat-labile Uracil DNA Glycosylase (UDG) ([Hänggeli et al., 2022]). Amplification was performed in the Bio-Rad CFX 96 QPCR instRUment (Biorad) using the following thermal profile: (1) initial incubation of 10 min at 42 °C, followed by (2) denaturation step of 5 min at 95 °C and (3) 50 cycles of two-step amplification (10 s at 95 °C and 20 s at 62 °C). For quantification, a standard curve was made based on a 10-fold serial dilution of DNA from T. gondii, equivalent to tachyzoite numbers ranging from 1 × 10^4 to 1 per 4 μl. The parasite load was expressed as number of tachyzoites per 20 ng of DNA. Statistical analyses were performed using GraphPad Prism version 5.0 (GraphPad Software, La Jolla, CA, USA). Comparisons of the parasite burdens between groups were conducted with the non-parametric Kruskal-Wallis test, followed by the Mann-Whitney-U test.

[2] = Formulation of the compound for oral gavage (precipitation); format: physicochemical; settings: compared with 5 mg/kg in corn oil containing 10% DMSO; data not shown
Protocol: A preliminary in vivo study was conducted in outbred CD1 mice that were experimentally infected with TgShSp1 oocysts.

[3] = tested on: T. gondii β-gal tachyzoites; settings: cited from earlier work

With CC(C)(C)c1ccc(C[S-])cc1.CC(C)(C)c1ccc(C[S-])cc1.COc1ncnc(NS(=O)(=O)c2ccc(NC(=O)Cc3ccc([S-])cc3)cc2)c1OC.Cc1ccc(C(C)C)cc1.Cc1ccc(C(C)C)cc1.[Cl-].[Ru+2].[Ru+2] [RU-SDX] the “parasiticidal or parasitostatic action in vitro” value ([1]; 3 and 6 days treatment) was “parasitostatic but not parasiticidal; also recorded: did not act parasiticidal”, the “tachyzoite re-emergence after removal of the drug” value ([1]; 6 days of continuous treatment, then culture without compound) was at most 4 days and the “TMRE fluorescence intensity / TMRE uptake (percentage of non-treated control = 100%)” value (Non-infected HFF) was 140%. The “TMRE fluorescence intensity / TMRE uptake (percentage of non-treated control = 100%)” value (T. gondii-infected HFF) was 130%, the “cerebral parasite load compared to placebo control group” value (T. gondii ShSp1 oocysts; 5 mg/kg oral gavage, 5 treatments from day 3 p.i., brain at 30 days p.i., P = 0.37) was “did not result in any reduction” and the “parasite load in eyes compared to placebo control group” value (T. gondii ShSp1 oocysts; 5 mg/kg oral gavage, 5 treatments from day 3 p.i., eyes at 30 days p.i.) was “significantly reduced”. The “parasite load in the heart compared to placebo control group” value (T. gondii ShSp1 oocysts; 5 mg/kg oral gavage, 5 treatments from day 3 p.i., heart at 30 days p.i.) was “significantly reduced”, the “toxicity by clinical signs in treated mice” value (T. gondii ShSp1 oocysts; 5 mg/kg oral in corn oil/10% DMSO, 5 treatments) was “not toxic” and the “behaviour at higher concentrations or in other vehicles (PBS ± DMSO, H2O ± DMSO, H2O + propane-1,2-diol)” value [2] was “precipitation”. The “proliferation (% of control ± SD)” value ([3]; 1 μM, ref Desiatkina et al., 2021) was “^b^, ^∗∗∗11 ± 1%”, the “proliferation (% of control ± SD)” value ([3]; 1.1 μM, ref Desiatkina et al., 2021) was “^b^,*116 ± 1%” and the “proliferation (% of control ± SD)” value ([3]; 1.25 μM, ref Desiatkina et al., 2021, Păunescu et al.) was “^b^, ^a0 ± 0%”.
